# Target: T1, GLP-1R (Homo sapiens, UniProt P43220)
# T1 construct: host or cells: GLP-1R CRE-bla CHO-K1 cells
# Assay: EC20 GLP-1(9-36) PAM cAMP assay: dose response of compound in the presence of fixed concentration of GLP-1(9-36)
# Type: cell-based
# Conditions: GLP-1R CRE-bla CHO-K1 cells, compound dose response with fixed concentration of GLP-1(9-36), read-out: EC20 GLP-1(9-36) PAM EC50
# In short: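 GLP-1R CRE-bla CHO-K1 cells treated 30 min at 37 °C with 12-point compound dose response plus fixed EC20 GLP-1(9-36), with IBMX, in HBSS/HEPES/0.1% BSA pH 7.4. Total cAMP measured by luminescent detection against standard curve; EC50 and Emax from non-linear regression.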
# T1 sequence (P43220 24-463): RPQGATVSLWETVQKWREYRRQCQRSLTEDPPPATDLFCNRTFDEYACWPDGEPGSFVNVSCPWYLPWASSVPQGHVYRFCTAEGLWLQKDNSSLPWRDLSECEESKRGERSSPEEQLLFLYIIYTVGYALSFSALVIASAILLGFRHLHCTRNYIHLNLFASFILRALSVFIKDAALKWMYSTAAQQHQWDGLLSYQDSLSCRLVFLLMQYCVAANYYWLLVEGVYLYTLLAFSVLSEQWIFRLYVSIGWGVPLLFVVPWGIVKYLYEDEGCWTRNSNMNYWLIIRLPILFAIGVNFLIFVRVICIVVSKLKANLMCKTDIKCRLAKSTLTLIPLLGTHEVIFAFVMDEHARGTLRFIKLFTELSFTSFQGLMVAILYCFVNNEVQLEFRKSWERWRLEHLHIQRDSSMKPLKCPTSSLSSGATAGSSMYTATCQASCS
# T1 sequence (P01275 100-127 partner limits assumed): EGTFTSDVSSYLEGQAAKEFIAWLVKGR
row,SMILES,EC50
1,CCC[C@H]1CC[C@H](C2CCN(c3cnc(-c4ccc(C[C@H](NC(=O)c5ccc(C(C)(C)C)s5)C(=O)N5CC(F)(C(=O)O)C5)cc4)nc3)CC2)CC1 [Compound 1451],800 to 2500 nM
2,Cc1cccc(-c2ccc(-c3cnc(-c4ccc(C[C@H](NC(=O)c5ccc(C(C)(C)C)s5)C(=O)N[C@H](C)C(=O)O)cc4)nc3)cc2)c1 [Compound 1285],< 800 nM
3,CC(C)(C)c1ccc(C(=O)N[C@@H](Cc2ccc(-c3ncc(-c4ccc(-c5ccccc5OC(F)(F)F)cc4F)cn3)cc2)C(=O)N2CC(C(=O)O)C2)s1 [Compound 1224],< 800 nM
4,"CCCCc1ccc(C2CCN(c3cnc(-c4ccc(C[C@H](NC(=O)c5ccc(C(C)(C)C)s5)C(=O)N5CC(C(=O)O)C5)cc4)nc3)CC2)cc1 [Compound 1412, (S)-1-(2-(5-(tert-butyl)thiophene-2-carboxamido)-3-(4-(5-(4-(4-butylphenyl)-piperidin-1-yl)pyrimidin-2-yl)phenyl)propanoyl)azetidine-3-carboxylic acid]",< 800 nM
5,C[C@@H](NC(=O)[C@H](Cc1ccc(-c2ncc(-c3ccc(C4CC4)cc3)cn2)cc1)NC(=O)c1ccc(C(C)(C)C)s1)C(=O)O [Compound 1306],800 to 2500 nM
6,CCc1ccc(-c2ccc(-c3cnc(-c4ccc(C[C@H](NC(=O)c5ccc(C(C)(C)C)s5)C(=O)N[C@H](C)C(=O)O)cc4)nc3)cc2)cc1 [Compound 1286],< 800 nM

# Further lines, results first:
row,EC50,SMILES
1,< 800 nM,CCC[C@H]1CC[C@H](C2CCN(c3cnc(-c4ccc(C[C@H](NC(=O)c5ccc(C(C)(C)C)s5)C(=O)NCCC(=O)O)cc4)nc3)CC2)CC1 [Compound 1433]
2,5000 to 10000 nM,Cc1ccc(-c2ccc(-c3cnc(-c4ccc(C[C@H](NC(=O)c5ccc(C(C)(C)C)s5)C(=O)N[C@H](C)C(=O)O)cc4)nc3)s2)cc1 [Compound 1302]
3,< 800 nM,CC[C@H]1CC[C@H](c2ccc(-c3cnc(-c4ccc(C[C@H](NC(=O)c5cnc(C6CC6)nc5)C(=O)O)cc4)nc3)cc2)CC1 [Compound 1391]
4,< 800 nM,C[C@@H](NC(=O)[C@H](Cc1ccc(-c2ncc(N3CCN(c4ccc(C(C)(C)C)cc4)C3=O)cn2)cc1)NC(=O)c1ccc(C(C)(C)C)s1)C(=O)O [Compound 1268]
5,800 to 2500 nM,CCCCCCCOc1ccc(-c2cnc(-c3ccc(C[C@@H](NC(=O)c4ccc(C(C)(C)C)s4)C(=O)N4CC(C(=O)O)C4)cc3)nc2)cc1 [Compound 1271]
6,800 to 2500 nM,C[C@@H](NC(=O)[C@H](Cc1ccc(-c2ncc(-c3ccc(-c4ccc(C#N)cc4)cc3)cn2)cc1)NC(=O)c1ccc(C(C)(C)C)s1)C(=O)O [Compound 1291]
7,< 800 nM,CCC[C@H]1CC[C@H](C2CCN(c3cnc(-c4ccc(C[C@H](NC(=O)c5ccc(C(C)(C)C)s5)C(=O)NC(C(=O)O)c5ccco5)cc4)nc3)CC2)CC1 (some centres unmarked) [Compound 1454]
8,< 800 nM,CC(C)Cc1ccc(-c2ccc(-c3cnc(-c4ccc(C[C@H](NC(=O)c5ccc(C(C)(C)C)s5)C(=O)N5CC(C(=O)O)C5)cc4)nc3)c(F)c2)cc1 [Compound 1221]
9,800 to 2500 nM,"CCCCCCCOc1ccc(-c2nnc(-c3ccc(CC(NC(=O)c4ccc(C(C)(C)C)cc4)C(=O)O)cc3F)s2)cc1 (stereo in doubt) [Compound 1552, (S)-2-(4-(tert-butyl)benzamido)-3-(3-fluoro-4-(5-(4-(heptyloxy)phenyl)-1,3,4-thiadiazol-2-yl)phenyl)propanoic acid]"

# Same assay, conditions: dose response of compound in presence of fixed concentration of GLP-1(9-36), GLP-1R CRE-bla CHO-K1 cells, read-out: EC20 GLP-1(9-36) PAM EC50
row,SMILES,EC50
1,CCCCCCCOc1ccc(-c2cnc(-c3ccc(C[C@H](NC(=O)c4ccc(C(C)(C)C)cc4)C(=O)NC4(CC(=O)O)CCOCC4)cc3)nc2)cc1 [Compound 553],800 to 2500 nM
2,CCCCCCCOc1ccc(-c2cnc(-c3ccc(C[C@H](NC(=O)c4ccc(C(C)(C)C)s4)C(=O)NCCCN4CCN(C)CC4)cc3)nc2)cc1 [Compound 961],2500 to 5000 nM
3,CC[C@H]1CC[C@H](c2ccc(-c3cnc(-c4ccc(C[C@H](NC(=O)c5ccc(C6(C)CC6)cc5)C(=O)N5CC(C(=O)O)C5)cc4)nc3)cc2)CC1 [Compound 1159],< 800 nM
4,CC[C@H]1CC[C@H](c2ccc(-c3cnc(-c4ccc(C[C@H](NC(=O)c5ccc(C(C)(C)C)s5)C(=O)N5CC[C@H](C(=O)O)C5)cc4)nc3)cc2)CC1 [Compound 1137],< 800 nM
5,CCCCCCCCc1ccc(-c2cnc(-c3ccc(C[C@H](NC(=O)c4ccc(C(C)(C)C)cc4)C(=O)NCCC(=O)O)cc3)nc2)cc1 [Compound 683],800 to 2500 nM
6,CC(C)(C)c1ccc(C(=O)N[C@@H](Cc2ccc(-c3ncc(-c4ccc(OCC5CCCCC5)cc4)cn3)cc2)C(=O)NC(C(=O)O)C(O)c2ccccc2)s1 (some centres unmarked) [Compound 936],800 to 2500 nM
7,CCCCCCCOc1ccc(-c2cnc(-c3ccc(C[C@H](NC(=O)c4ccc(C(C)(C)C)cc4OCC)C(=O)N4CC(C(=O)O)C4)cc3)nc2)cc1 [Compound 1100],2500 to 5000 nM
8,CCCCCCCOc1ccc(-c2cnc(-c3ccc(C[C@H](NC(=O)c4ccc(C(C)(C)C)s4)C(=O)NCCNC(C)=O)cc3)nc2)cc1 [Compound 389],800 to 2500 nM
9,CCCCCCCOc1ccc(-c2cnc(-c3ccc(C[C@H](NC(=O)c4ccc(C(C)(C)C)s4)C(=O)NC(C(=O)O)C(O)c4ncccn4)cc3)nc2)cc1 (some centres unmarked) [Compound 913],< 800 nM
10,CCCCCCCOc1ccc(-c2cnc(-c3ccc(C[C@H](NC(=O)c4ccc(C(C)(C)C)s4)C(=O)N4CCC[C@H]4C(=O)NS(=O)(=O)CC(=O)OC)cc3)nc2)cc1 [Compound 496],< 800 nM
11,CCCCCCCOc1ccc(-c2cnc(-c3ccc(CC(NC(=O)c4ccc(C(C)(C)C)s4)C(=O)N[C@H](C(=O)O)C(C)C)cc3)nc2)cc1 (some centres unmarked) [Compound 407],< 800 nM
12,CCCCCCCOc1ccc(-c2cnc(-c3ccc(C[C@H](NC(=O)c4ccc(C(C)(C)C)s4)C(=O)NS(=O)(=O)c4ccccc4)cc3)nc2)cc1 [Compound 423],800 to 2500 nM
13,CC[C@H]1CC[C@H](c2ccc(-c3cnc(-c4ccc(C[C@H](NC(=O)c5ccc(C(C)=O)cc5)C(=O)N5CC(C(=O)O)C5)cc4)nc3)cc2)CC1 [Compound 1162],2500 to 5000 nM
14,COc1ccc(-c2ccc(-c3cnc(-c4ccc(C[C@H](NC(=O)c5ccc(C(C)(C)C)s5)C(=O)N[C@H](C)C(=O)O)cc4)nc3)cc2)cc1 [Compound 1002],800 to 2500 nM
15,CC[C@H]1CC[C@H](c2ccc(-c3cnc(-c4ccc(C[C@H](NC(=O)c5ccc(C6CC6)cc5)C(=O)N5CC(C(=O)O)C5)cc4)nc3)cc2)CC1 [Compound 1158],< 800 nM

# More lines, now with the values ahead:
row,EC50,SMILES
1,2500 to 5000 nM,CCCCCCCOc1ccc(-c2cnc(-c3ccc(C[C@H](NC(=O)c4ccc(CC(C)C)cc4)C(=O)N4CC[C@H](C(=O)O)C4)cc3)nc2)cc1 [Compound 851]
2,2500 to 5000 nM,CCCCCc1noc(-c2cnc(-c3ccc(C[C@H](NC(=O)c4ccc(C(C)(C)C)cc4)C(=O)NCCC(=O)O)cc3)nc2)n1 [Compound 753]
3,5000 to 10000 nM,CCCCCCCOc1ccc(-c2cnc(-c3ccc(C[C@H](NC(=O)c4ccc(C(C)(C)C)s4)C(=O)NCC(O)CO)cc3)nc2)cc1 (some centres unmarked) [Compound 462]
4,< 800 nM,CCCCCCCOc1ccc(-c2cnc(-c3ccc(C[C@H](NC(=O)c4ccc(C(C)(C)C)s4)C(=O)N4C[C@H](O)C[C@H]4C(=O)O)cc3)nc2)cc1 [Compound 612]
5,< 800 nM,"CCCCCCCOc1ccc(-c2cnc(-c3ccc(C[C@H](NC(=O)c4ccc(C(C)(C)C)cc4)C(=O)N[C@H](C)C(=O)O)cc3)nc2)cc1 [Compound 398, (R)-2-((S)-2-(4-(tert-butyl)benzamido)-3-(4-(5-(4-(heptyloxy)phenyl)pyrimidin-2-yl)phenyl)propanamido)propanoic acid]"
6,< 800 nM,CCCCCCCOc1ccc(-c2cnc(-c3ccc(C[C@H](NC(=O)c4ccc(C(C)(C)C)s4)C(=O)N4C[C@H](C#N)C[C@H]4C(=O)O)cc3)nc2)cc1 [Compound 641]
7,800 to 2500 nM,CCCCCCCOc1ccc(-c2cnc(-c3ccc(CC(NC(=O)c4ccc(C(C)(C)C)s4)C(=O)N[C@@H](CC(C)C)C(=O)O)cc3)nc2)cc1 (some centres unmarked) [Compound 408]
8,2500 to 5000 nM,CCCCCCCOc1ccc(-c2cnc(-c3ccc(C[C@H](NC(=O)c4ccc(C(C)(C)C)s4)C(=O)NC(C(=O)O)C(O)c4cccc(Cl)c4)cc3)nc2)cc1 (some centres unmarked) [Compound 902]
9,800 to 2500 nM,CCCCCCCOc1ccc(-c2cnc(-c3ccc(C[C@H](NC(=O)c4ccc(C(C)(C)C)cc4)C(=O)N[C@H](C(=O)O)[C@@H](C)CC)cc3)nc2)cc1 [Compound 449]
10,< 800 nM,Cc1cccc(-c2ccc(-c3cnc(-c4ccc(C[C@H](NC(=O)c5ccc(C(C)(C)C)s5)C(=O)N[C@H](C)C(=O)O)cc4)nc3)cc2F)c1 [Compound 1141]
11,< 800 nM,CCCCCCCOc1ccc(-c2cnc(-c3ccc(C[C@H](NC(=O)c4ccc(C(C)(C)C)cc4)C(=O)N[C@@H](CC(=O)NC4CC4)C(=O)O)cc3)nc2)cc1 [Compound 479]
12,800 to 2500 nM,CCOCCCCOc1ccc(-c2cnc(-c3ccc(C[C@H](NC(=O)c4ccc(C(C)(C)C)cc4)C(=O)NCCC(=O)O)cc3)nc2)cc1 [Compound 443]
13,< 800 nM,CCCCCCCOc1ccc(-c2cnc(-c3ccc(C[C@H](NC(=O)c4ccc(CC)cc4)C(=O)N[C@H](C)C(=O)O)cc3)nc2)cc1 [Compound 828]
14,< 800 nM,CC(C)(C)CCCOc1ccc(-c2cnc(-c3ccc(C[C@H](NC(=O)c4ccc(C(C)(C)C)s4)C(=O)N4CC(C(=O)O)C4)cc3)nc2)cc1 [Compound 944]
15,< 800 nM,CCCCCCCOc1ccc(-c2cnc(-c3ccc(C[C@H](NC(=O)c4ccc(C(C)(C)C)s4)C(=O)N[C@@H](CC(=O)O)C(=O)NC)cc3)nc2)cc1 [Compound 526]
16,800 to 2500 nM,CCCCCCCOc1ccc(-c2cnc(-c3ccc(C[C@H](NC(=O)c4ccc(C(C)(C)C)s4)C(=O)NC(C(=O)O)c4cccc(OC)c4)cc3)nc2)cc1 (some centres unmarked) [Compound 629]
17,800 to 2500 nM,CCCCCCOc1ccc(-c2cnc(-c3ccc(C[C@H](NC(=O)c4ccc(C(C)(C)C)cc4)C(=O)N[C@H](C)C(=O)O)cc3)nc2)cc1 [Compound 719]
